According to patent US11046753B2, “Antibody composition and buffer system therefor” (INNOVA BIOSCIENCES LTD, priority 2013, dated 2021):
“Also recorded” adds a separate entry of the source.

What was measured:
[1] = Carbodiimide (EDC)-mediated conjugation of goat anti-rabbit IgG to carboxylated gold nanoparticles in presence of additive, read by lateral flow assay
Procedure: Molecules were tested initially at pH 5 in EDC-mediated reactions with carboxylated gold particles (InnovaCoat GOLD, Innova Biosciences). Potentially interesting molecules from this screening exercise were further evaluated in NHS ester reactions, isothiocyanate reactions and thiolation reactions involving iminothiolane. All of these reactions are widely used in the antibody conjugation field and all would be expected to suffer from interference in the presence of glycine.
Lateral flow test strips (4 mm wide) were prepared from nitrocellulose membrane (Millipore Hi Flow plus 90) striped with goat anti-rabbit IgG (test line) and biotin-BSA (control line). Strips were housed in plastic cartridges and samples of gold conjugate (80 ul) were added to the sample pad. Cartridges were allowed to stand for 30 min and then read using a ESE-Quant GOLD reader—QIAGEN. Each sample was spiked with a fixed amount of streptavidin-gold (Innova biosciences—Product code: 250-0200), which binds to the control line, to check that each test strip had run correctly and that test line data was valid.
10 μg of goat anti-rabbit IgG (GAR) was used per ml of coated 40 nm nanoparticles with carboxyl functionality (InnovaCoat GOLD, Innova Biosciences) at […] in the presence of additives at 50 mM final concentration. Typically reactions were set up with the following additions: 40 μl of 40 nm InnovaCoat (carboxylated) gold nanopartcles, were incubated 5 minutes with 4 μl 0.1 mg/ml GAR, 20 μl water, and 80 μl of 100 mM MES buffer containing 100 mM of additive, pH 5.0. Next, 16 μl of 1 mM EDC was added and after 10 min incubation at 22° C., 20 μl of 10×TBS/1% Tween20 and 20 μl of water was added to give 2 OD conjugate.
Gold conjugates were mixed when required with rabbit IgG ((final concentration 50 ng/ml) at 22° C. Conjugates were 0.2 OD final concentration (i.e. 1/10 dilution from stock conjugates). Samples were run in triplicate on lateral flow test strips as described in Example 1.

[2] = 25° C., cited from earlier work; for pKa (COOH): Table 1; for pKa of buffer: neutralisation / catch / wash buffers
[3] = Lightning-Link fluorescein conjugation of goat anti-rabbit IgG in presence of additive, fluorescence assay; conditions: 50 mM additive; for % of control: conjugate 1/100 dilution, additive-free control 100%
Procedure: (§1) Black 96-well plates (Greiner Bio-One (code 655077)) were incubated with 50 ul rabbit IgG (1 ug/well) overnight at 4° C. The plates were blocked with TBS/0.1% BSA for 1 hour at room temperature and washed five times with TBS (wash buffer). Fluorescent antibody conjugates were serially diluted in TBS/0.1% BSA and 50 ul aliquots were added to wells in triplicate. After incubation at room temperature for 1 hour, the plate was washed five times and fluorescence emission was read in using a Tecan Infinite M200 plate reader with i-Control 1.4 software with the appropriate excitation/emission settings (fluorescein, 490 nm/535 nm; phycoeythrin, 535 nm/575 nm. Fluorescence data was plotted as a function of conjugate dilution. To compare results for additives tested in different experiments the data were transformed into a percentage of a control value (i.e. the signal for conjugate prepared in the absence of any test additive).
Reactions were carried out according to the manufacturer's standard protocol except that the additives were included at up to 50 mM concentration in conjugation reactions of Goat-anti-rabbit IgG using fluorescein Lightning-Link kit (product code 707-0010, Innova Biosciences, UK). Conjugates were tested according to the protocol described in Example 2.

[4] = Degree of ionisation of the acid group at pH 5 (Henderson-Hasselbach); format: physicochemical
[5] = Effect of additives on the thiolation reagent 2-iminothiolane (thiol release, DTNB, A405); conditions: 50 mM additive, pH 8.0, 30 minutes
Procedure: 20 μl of 2 mM 2-iminothiolane was added to each well and mixed quickly and the absorbance values were read at 405 nm every minute for 30 minutes using a Tecan Infinite M200 plate reader with i-Control 1.4 software. […] In control reaction, there is a steady linear increase in absorbance as the reagent is hydrolysed by water. […] The rising baseline can be attributed to the known sensitivity of 2-iminothiolane to hydrolysis at alkaline pH values.

[6] = Lightning-Link phycoerythrin conjugation of goat anti-rabbit IgG in presence of tricine, fluorescence assay
Procedure: as §1
The method was as described in Example 4, except that the Goat anti-rabbit IgG was conjugated to the fluorescent protein phycoerythrin (PE) using a Lightning-Link PE conjugation kit (703-0005). Tricine has little effect on Lightning-Link PE conjugation reactions in the range of concentrations tested. In this case the conjugate prepared at the highest concentration of tricine (50 mM) gave a signal that was 91% of control value in the absence of additive.

[7] = additive 50 mM final, MES pH 5.0, EDC, lateral flow test line signal

Molecule	% of Signal [1, 7] [%]	interference in carbodiimide-mediated antibody-gold nanoparticle conjugation reaction ([1]; pH 5, EDC)	pKa (COOH) [2]	also measured
[N-]=[N+]=[N-].[Na+] [0.01% NaN3, sodium azide]	26	caused interference	pKa1 = 4.8	
O=C(O)[C@@H]1CCCN1 [Proline]	94	little or no effect		interference in Lightning-Link fluorescein conjugation reaction [3]: significant interference; % of control [3]: 53%
O=C(O)CCC(=O)O [Succinic Acid]	0	severe interference		
CC(C)(C)C(=O)O [Pivalic Acid]	53	significant interference but not totally abolishing the conjugation reaction; also recorded: partial inhibition		acid groups ionised (COO−) [4]: ~50%
C[N+](C)(C)CC(=O)[O-] [Glycine betaine, N,N,N-trimethylglycine]	96	little or no effect	pKa = 1.83	interference in Lightning-Link fluorescein conjugation reaction [3]: little or no effect; % of control [3]: 98%; release of thiols from 2-iminothiolane versus control ([5]; listed as betaine): no increase in this rate; release of thiols from 2-iminothiolane versus control ([5]; listed as glycine betaine): without effect; pKa of the carboxyl (acid) group [2]: 1.8
Citric Acid	0	severe interference		release of thiols from 2-iminothiolane versus control ([5]; listed as Citric acid): no effect; release of thiols from 2-iminothiolane versus control ([5]; listed as citric acid): no increase in this rate
O=C(O)C(Cl)(Cl)Cl [TCA, trichloroacetic acid]	0	severe interference		acid groups ionised (COO−) [4]: essentially fully ionised
O=C(O)c1ccccn1 [2-Picolinic Acid, 2-pyridinecarboxylic acid]	100		pKa1 = 5.52	interference in Lightning-Link fluorescein conjugation reaction [3]: modest interference; % of control [3]: 83%; interference in carbodiimide-mediated antibody-gold nanoparticle conjugation reaction ([1]; pH 5, EDC, listed as 2-picolinic acid): little or no effect; interference in carbodiimide-mediated antibody-gold nanoparticle conjugation reaction ([1]; pH 5, EDC, listed as picolinic acid): without effect; pKa of the amine group [2]: 5.52
O=S(=O)(O)CCN1CCN(CCS(=O)(=O)O)CC1 [PIPES, piperazine-N,N′-bis(2-ethanesulfonic acid)]				pKa of buffer [2]: 6.76
O=S(=O)(O)CCCCN1CCN(CCO)CC1 [HEPBS, N-(2-Hydroxyethyl)piperazine-N′-(4-butanesulfonic acid)]				pKa of buffer [2]: 8.3
O=C(O)c1cccnc1 [Nicotinic Acid]	73	significant interference; also recorded: partial interference	pKa1 = 2.201	pKa of the carboxyl (acid) group [2]: 2.2
CN(C)CC(=O)O [N,N- Dimethylglycine, N,N-dimethylglycine]	110	little or no effect	pKa1 = 2.06	interference in Lightning-Link fluorescein conjugation reaction [3]: little or no effect; % of control [3]: 96%
O=C(O)c1c(O)cc(O)cc1O [2,4,6-Trihydroxy-benzoic Acid, 2,4,6-trihydroxybenzoic acid]	0	severe interference	pKa1 = 1.68	
CC(=O)O [acetic acid]		greater interference in carbodiimide reactions than glycine		
O=C(O)CNC(CO)(CO)CO [Tricine, N-tris(hydroxymethyl)methylglycine]	105	little or no effect	pKa1 = 2.3	% of control ([6]; 50 mM tricine): 91%; interference in Lightning-Link phycoerythrin conjugation reaction ([6]; up to 50 mM): little effect; also recorded: modest degree of interference; pKa of the carboxyl (acid) group [2]: ~2.3
CC(=O)[O-].[Na+] [Na Acetate, sodium acetate]				% of Signal ([1]; pH 5): 37%; interference in carbodiimide-mediated antibody-gold nanoparticle conjugation reaction ([1]; pH 5): significant interference but not totally abolishing the conjugation reaction
NC(CO)(CO)CO [Tris]	19	severe interference	pKa1 = 8.07	
Phosphate		caused interference		
CNCC(=O)O [N-Methylglycine (Sarcosine), N-methylglycine]	93	little or no effect	pKa1 = 2.36	
NCCCC(=O)O [GABA (Υ-Aminobutyric Acid), gamma-amino butyric acid]	26	significant interference; also recorded: significantly inhibits	pKa1 = 4.23	acid groups ionised (COO−) [4]: 85.5%
CCC(N)C(=O)O (racemic) [DL-2 Aminobutyric Acid]	101		pKa = 2.29	interference in carbodiimide-mediated antibody-gold nanoparticle conjugation reaction ([1]; pH 5, EDC, listed as DL-2-aminobutyric acid): little or no effect; interference in carbodiimide-mediated antibody-gold nanoparticle conjugation reaction ([1]; pH 5, EDC, listed as DL-2 amino butyric acid): no interference; pKa of the carboxyl (acid) group [2]: 2.29
NCCC(=O)O [Beta-Alanine]	92	little or no effect	pKa = 3.6	
O=C(O)C1CCCCC1 [Cyclohexane-carboxylic acid, cyclohexane carboxylic acid]	71	significant interference but not totally abolishing the conjugation reaction		
C[C@H](N)C(=O)O [Alanine]	100	little or no effect		
